Like-named read-outs stand apart in the source and are kept apart here.
Assays:
hampsters [1] = experiment: Bile lipid and bile acid contents of the bile (cholesterol-enriched diet, 80 days); assay type: in vivo
Experimental: (§1) The investigations were carried out on hampsters (of female sex, but excluding those in a state of pregnancy) having an initial weight of 75-90 g. They were treated for 80 days with oral administration (by gastric probe) of MG-UCD (10-20 mg/kg/day), chenodeoxycholic acid (10-20 mg/kg/day) or ursodeoxycholic acid (10-20 mg/kg/day) (Tables 4 and 5). The animals were maintained for 80 consecutive days on a Nossan feed diet for rats, enriched with cholesterol (2 mg/g of food).
(§2) Each experimental group consisted of 10 units. After 80 days, the animals were narcotised with ethyl ether, and the bile was withdrawn, together with the calculi and crystals from the gall-bladder as described by Pearlman and coll. in Gastroenterology 77, 634 (1979).
The bile acid, phospholipid, cholesterol, cholic acid, chenodeoxycholic acid, ursodeoxycholic acid, DCA (deoxycholic acid) and LCA (lithocholic acid) contents were evaluated in the bile by the methods described by Pearlman and coll. (see above).

patients = experiment: Controlled study in comparison with the free acids; tolerability in patients; assay type: in vivo; settings: patients
rat = experiment: Acute lethality and toxicity, oral administration (gastric probe); assay type: in vivo; parameters: key to Toxic symptomatology Type: NN = no symptomatology; D = depression; settings: oral
Experimental: (§3) Unless otherwise specified, the research was carried out using: a) Mg-UCD capsules as such; b) the powdered contents of Mg-UCD capsules; CDCA (chenodeoxycholic acid) and UDCA (ursodeoxycholic acid) as pure substance which in all cases was partly dissolved and partly suspended under warm conditions (T = 30°C) in 10% gum arabic mucilage (so as to administer 10-40 ml of liquid per kg orally). In certain cases, namely in the experiments involving parenteral administration, the active principle of Mg-UCD, the chenodeoxycholic acid and ursodeoxycholic acid were dissolved in distilled water of slightly alkaline pH (5-10 ml/kg).
(§4) The generally acute lethality, toxicity and tolerability were determined by oral administration of the Mg-UCD (by gastric probe) in the Mus musculus, rat and dog. Animals of both sexes were used, none of which were pregnant. They were fasted for about 12 hours before treatment (but allowing them free access to water). The investigations were carried out using the Mg-UCD in powder form. Comparative investigations were carried out on the rat and Mus musculus using the active principle by endoperitoneal administration, and chenodeoxycholic acid and ursodeoxycholic acid by oral administration (using a gastric probe). Each dose was administered to 20 rats or Mus musculus (10 male and 10 female) and to eight dogs (4 male and 4 female). The animals were observed attentively during the 7 days following administration, and any lethality, toxic symptoms, disturbances, functional variations determinable with the eye, behaviour etc. were noted.
(§5) The LD50 was determined 7 days after administration using the probit method.

[2] = as above; assay type: in vivo, Mus musculus; parameters: key to Toxic symptomatology Type: NN = no symptomatology; D = depression; settings: in vivo, po; for mortality at 24 h / mortality at 168 h: oral; for mortality at 24 h: read-out: % mortality at following times after administration 24 h; for mortality at 168 h: read-out: % mortality at following times after administration 7 days; for LD50 at 168 h: probit method, read-out: LD50 (mg/kg with reliability limits) 7 days after treatment
Experimental: as §3, §4, §5

Mus musculus = experiment: as above; assay type: in vivo; parameters: key to Toxic symptomatology Type: NN = no symptomatology; D = depression; settings: oral
Experimental: as §3, §4, §5

hampsters [3] = experiment: Action on the formation of cholesterol calculi in the gall-bladder (cholesterol-enriched diet, 80 days); assay type: in vivo; settings: female hampsters; for % animals with calculi / % animals with crystals: cholesterol-enriched diet
Experimental: as §1, §2

[4] = mouse, 2000 mg/kg, M. musculus F, 2000 mg/kg
[5] = mouse, 2000 mg/kg, M. musculus M, 2000 mg/kg
[6] = mouse, 4000 mg/kg, M. musculus F, 4000 mg/kg
[7] = mouse, 4000 mg/kg, M. musculus M, 4000 mg/kg
[8] = mouse, 8000 mg/kg, M. musculus F, 8000 mg/kg
[9] = mouse, 8000 mg/kg, M. musculus M, 8000 mg/kg
[10] = rat, 2000 mg/kg, Rat F, 2000 mg/kg
[11] = rat, 2000 mg/kg, Rat M, 2000 mg/kg
[12] = rat, 4000 mg/kg, Rat F, 4000 mg/kg
[13] = rat, 4000 mg/kg, Rat M, 4000 mg/kg
[14] = rat, 8000 mg/kg, Rat F, 8000 mg/kg
[15] = rat, 8000 mg/kg, Rat M, 8000 mg/kg

C[C@H](CCC(=O)O)[C@H]1CC[C@H]2[C@@H]3[C@@H](O)C[C@@H]4C[C@H](O)CC[C@]4(C)[C@H]3CC[C@]12C [Ursodeoxycholic acid, 17β-(1-methyl-3-carboxypropyl)-ethiocholane-3α,7β-diol]
Bile acids (expressed as molar % ± s.e.) Cheno-deoxycholic acid (hampsters [1]; 10 mg/kg/day oral for 80 days): 12.4 ± 2.6 molar %
Bile acids (expressed as molar % ± s.e.) Cholic acid (hampsters [1]; 10 mg/kg/day oral for 80 days): 30.2 ± 4.1 molar %
Bile acids (expressed as molar % ± s.e.) DCA (hampsters [1]; 10 mg/kg/day oral for 80 days): 12.9 ± 0.8 molar %
Bile acids (expressed as molar % ± s.e.) LCA (hampsters [1]; 10 mg/kg/day oral for 80 days): 2.5 ± 0.1 molar %
Bile acids (expressed as molar % ± s.e.) Urso-deoxycholic acid (hampsters [1]; 10 mg/kg/day oral for 80 days): 36.2 ± 1.4 molar %
Bile lipids (expressed as molar % ± s.e.) Bile acids (hampsters [1]; 10 mg/kg/day oral for 80 days): 79.7 ± 4.1 molar %
Bile lipids (expressed as molar % ± s.e.) Cholesterol (hampsters [1]; 10 mg/kg/day oral for 80 days): 7.4 ± 0.4 molar %
Bile lipids (expressed as molar % ± s.e.) Phospho-lipids (hampsters [1]; 10 mg/kg/day oral for 80 days): 15.5 ± 1.0 molar %
Bile acids (expressed as molar % ± s.e.) Cheno-deoxycholic acid (hampsters [1]; 20 mg/kg/day oral for 80 days): 4.5 ± 0.9 molar %
Bile acids (expressed as molar % ± s.e.) Cholic acid (hampsters [1]; 20 mg/kg/day oral for 80 days): 17.9 ± 2.1 molar %
Bile acids (expressed as molar % ± s.e.) DCA (hampsters [1]; 20 mg/kg/day oral for 80 days): 10.5 ± 0.6 molar %
Bile acids (expressed as molar % ± s.e.) LCA (hampsters [1]; 20 mg/kg/day oral for 80 days): 3.9 ± 0.2 molar %
Bile acids (expressed as molar % ± s.e.) Urso-deoxycholic acid (hampsters [1]; 20 mg/kg/day oral for 80 days): 72.8 ± 4.7 molar %
Bile lipids (expressed as molar % ± s.e.) Bile acids (hampsters [1]; 20 mg/kg/day oral for 80 days): 81.3 ± 4.3 molar %
Bile lipids (expressed as molar % ± s.e.) Cholesterol (hampsters [1]; 20 mg/kg/day oral for 80 days): 5.7 ± 0.2 molar %
Bile lipids (expressed as molar % ± s.e.) Phospho-lipids (hampsters [1]; 20 mg/kg/day oral for 80 days): 15.8 ± 1.0 molar %
side effects (patients): tends to cause constipation
Toxic symptomatology Latency (rat; Rat F, 2000 mg/kg): 5-10 min
Toxic symptomatology Type (rat; Rat F, 2000 mg/kg): D
Toxic symptomatology Latency (rat; Rat F, 4000 mg/kg): 5-10 min
Toxic symptomatology Type (rat; Rat F, 4000 mg/kg): D
Toxic symptomatology Latency (rat; Rat F, 8000 mg/kg): 5-10 min
Toxic symptomatology Type (rat; Rat F, 8000 mg/kg): D
Toxic symptomatology Latency (rat; Rat M, 2000 mg/kg): 5-10 min
Toxic symptomatology Type (rat; Rat M, 2000 mg/kg): D
Toxic symptomatology Latency (rat; Rat M, 4000 mg/kg): 5-10 min
Toxic symptomatology Type (rat; Rat M, 4000 mg/kg): D
Toxic symptomatology Latency (rat; Rat M, 8000 mg/kg): 5-10 min
Toxic symptomatology Type (rat; Rat M, 8000 mg/kg): D
mortality at 24 h [2, 4]: 0%
mortality at 168 h [2, 4]: 0%
mortality at 24 h [2, 5]: 0%
mortality at 168 h [2, 5]: 0%
mortality at 24 h [2, 6]: 20%
mortality at 168 h [2, 6]: 20%
mortality at 24 h [2, 7]: 20%
mortality at 168 h [2, 7]: 20%
mortality at 24 h [2, 8]: 60%
mortality at 168 h [2, 8]: 70%
mortality at 24 h [2, 9]: 60%
mortality at 168 h [2, 9]: 80%
LD50 at 168 h ([2]; mouse, M. musculus F): 6140 mg/kg
LD50 at 168 h ([2]; mouse, M. musculus M): 5630 mg/kg
mortality at 24 h [2, 10]: 0%
mortality at 168 h [2, 10]: 0%
mortality at 24 h [2, 11]: 0%
mortality at 168 h [2, 11]: 0%
mortality at 24 h [2, 12]: 10%
mortality at 168 h [2, 12]: 10%
mortality at 24 h [2, 13]: 10%
mortality at 168 h [2, 13]: 10%
mortality at 24 h [2, 14]: 70%
mortality at 168 h [2, 14]: 60%
mortality at 24 h [2, 15]: 70%
mortality at 168 h [2, 15]: 70%
LD50 at 168 h ([2]; rat, Rat F): 7330 mg/kg
LD50 at 168 h ([2]; rat, Rat M): 6490 mg/kg
Toxic symptomatology Latency (Mus musculus; M. musculus F, 2000 mg/kg): 5-10 min
Toxic symptomatology Type (Mus musculus; M. musculus F, 2000 mg/kg): D
Toxic symptomatology Latency (Mus musculus; M. musculus F, 4000 mg/kg): 5-10 min
Toxic symptomatology Type (Mus musculus; M. musculus F, 4000 mg/kg): D
Toxic symptomatology Latency (Mus musculus; M. musculus F, 8000 mg/kg): 5-10 min
Toxic symptomatology Type (Mus musculus; M. musculus F, 8000 mg/kg): D
Toxic symptomatology Latency (Mus musculus; M. musculus M, 2000 mg/kg): 5-10 min
Toxic symptomatology Type (Mus musculus; M. musculus M, 2000 mg/kg): D
Toxic symptomatology Latency (Mus musculus; M. musculus M, 4000 mg/kg): 5-10 min
Toxic symptomatology Type (Mus musculus; M. musculus M, 4000 mg/kg): D
Toxic symptomatology Latency (Mus musculus; M. musculus M, 8000 mg/kg): 5-10 min
Toxic symptomatology Type (Mus musculus; M. musculus M, 8000 mg/kg): D
% animals with calculi (hampsters [3]; 10 mg/kg/day oral for 80 days): 40%
% animals with crystals (hampsters [3]; 10 mg/kg/day oral for 80 days): 20%
% animals with calculi (hampsters [3]; 20 mg/kg/day oral for 80 days): 0%
% animals with crystals (hampsters [3]; 20 mg/kg/day oral for 80 days): 0%
Body weight (g ± s.e.) after following days 80 (hampsters [3]; day 80, oral, 10 mg/kg/day): 141 ± 7 g

From patent EP0092073A1, “Magnesium salt of chenodeoxycholic acid and ursodeoxycholic acid, the process for its preparation, and therapeutic compositions which contain it as active principle” (SCHWARZ ITALIA S.p.A., priority 1982, dated 1983)
